Results taken from patent publication US20160096826A1, “CO-CRYSTALS OF LAPATINIB MONOACID SALTS” (priority 2014, published 2016).
Counter-ions that a name gives are not always drawn. Like-named read-outs stand apart in the source and are kept apart here.

Legend:
[1] = coformer acid; cited from earlier work
[2] = male rats; for Cmax: suspension in hydroxypropylmethylcellulose:Tween 80 in WFI, plasma Lapatinib
Procedure: (§1) For the oral administration, the compounds were suspended in hydroxypropylmethylcellulose:Tween 80 (0.5%:0.1%) in WFI to reach a concentration of 3 mg parent compound/mL in all cases.
(§2) A bioanalytical UPLC®-MS/MS method was characterized and allowed the determination of the Lapatinib in rat plasma; the precision and accuracy of the QC samples was appropriate according to international guidelines.
(§3) A non-compartmental pharmacokinetic analysis was carried out with mean plasma concentration-time curves using WinNonlin® Professional Version 6.3 (Phoenix Version 1.3, Pharsight Corporation):
(§4) For the preparation of the intravenous solution and the oral suspensions, the correction factor and the purity were applied for all compounds. Blood samples were collected from all animals at all scheduled time points.
(§5) The study samples were analyzed according to the following UPLC®-MS/MS method:

[3] = Tyverb EPAR; cited from earlier work
in vivo [4] = conditions: male, Wistar, rat, male rats; for bioavailability: F (absolute bioavailability), oral 30 mg/kg AUCt compared with iv 10 mg/kg; for AUC(0-t): AUCt; for Cmax: suspension in hydroxypropylmethylcellulose:Tween 80 in WFI, plasma Lapatinib; for MRT last: MRTt (mean residence time); for Vd/F: Vz/F
Procedure: as §1, §2, §3, §4, §5

[5] = Intravenous bolus pharmacokinetics, non-compartmental analysis, 10 mg Lapatinib/kg; assay type: in vivo; conditions: Wistar, rat, plasma, male rats
Procedure: as §3

in vivo [6] = conditions: Wistar, rat, plasma, po, 30 mg/kg
Description: (§6) Therefore, the absorption process was described by two parallel inputs processes. The first input characterized a fast-release component (with a ka1 rate of absorption) while the second input characterized a delayed release of the drug (with a ka2 rate of absorption). The fraction of the oral dose associated with the first absorption component was estimated by the F parameter, while the remaining fraction of the drug (1-F) was assumed to be released in the second absorption process. The F fraction of the dose was immediately release (lag1) while the release of the remaining (1-F) fraction occurred with an estimated lag time (lag2).
(§7) The disposition and elimination PK parameters of Lapatinib (k12, k21, k13, k31, and kel) for the different oral formulations were fixed to the ones estimated in the IV model due to the limited PK samples available for a proper characterization of these parameters after oral administration.

in vivo [7] = conditions: Wistar, rat, plasma, iv, 10 mg/kg
[8] = Model-based PK analysis (NONMEM), oral administration, two parallel input processes; conditions: for AUC0INF / Absolute Bioavail. / Cmax / MRTINF / Tmax: derived from PK modelling, oral
Description: as §6, §7

[9] = Model-based PK analysis (NONMEM), IV administration, three-compartment model; conditions: Group 1
[10] = Stability at 74% RH at 40° C. (XRPD)
[11] = Stability in water suspension followed by XRPD; assay type: physicochemical; conditions: 40 volumes of water, room temperature, XRPD at 1, 4 and 24 hours
Procedure: The three suspensions were stirred at room temperature in 40 volumes of water and the transformation of the product was followed by XRPD at 1 hour, 4 hours and 24 hours.

[12] = cited from earlier work
[13] = pKa values for the FDA co-crystal criterion; assay type: physicochemical; conditions: approximated by comparison with Gefitinib and Erlotinib; read-out: pKa of the second less basic function
Description: As further confirmation that the products of the present inventions are co-crystals and not simply salts, the criterion adopted by the FDA Guidelines of April 2013 (see below) is here reported: the active ingredient-excipient complex should be classified as co-crystal if ΔpKa of the two species is <1.

[14] = plasma, po, 30 mg/kg, oral 30 mg/kg
[15] = listed as co-crystal Lapatinib monotosylate:caprylic acid (1:2)
[16] = listed as co-crystal Lapatinib monotosylate:caproic acid (1:2)
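Wherever Cmax/AUCt (apparent absorption rate) is given: parent drug in plasma quantified by UPLC-MS/MS, parameters derived by non-compartmental analysis of mean concentration-time curves, oral suspension at 3 mg/mL.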
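Wherever F (absolute bioavailability) is given: parent drug in plasma quantified by UPLC-MS/MS, parameters derived by non-compartmental analysis of mean concentration-time curves, oral suspension at 3 mg/mL.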
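Wherever F is given: parent drug in plasma quantified by UPLC-MS/MS, parameters derived by non-compartmental analysis of mean concentration-time curves, oral suspension at 3 mg/mL.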
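Wherever t1/2app (apparent terminal elimination half-life) is given: parent drug in plasma quantified by UPLC-MS/MS, parameters derived by non-compartmental analysis of mean concentration-time curves, oral suspension at 3 mg/mL.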

For `CCCCCC(=O)O` [caproic acid], the pKa [1] is given as 4.8.
In the case of `CS(=O)(=O)CCNCc1ccc(-c2ccc3ncnc(Nc4ccc(OCc5cccc(F)c5)c(Cl)c4)c3c2)o1` [Form III, Lapatinib monohydrochloride:adipic acid (1:1)], the “F (absolute bioavailability)” value ([2]; oral 30 mg/kg AUCt compared with iv 10 mg/kg) is reported as 44.98%, the Cmax ([2]; oral 30 mg/kg, 30 mg/kg) is reported as 2567 ng/mL and the AUCt ([2]; oral 30 mg/kg, 30 mg/kg) is reported as 18433 ng·h/mL. For the same compound, the Tmax ([2]; oral 30 mg/kg, 30 mg/kg) was 3 h and the “t1/2app (apparent terminal elimination half-life)” value ([2]; oral 30 mg/kg, 30 mg/kg) was 3.13 h.
For `CS(=O)(=O)CCNCc1ccc(-c2ccc3ncnc(Nc4ccc(OCc5cccc(F)c5)c(Cl)c4)c3c2)o1.Cc1ccc(S(=O)(=O)O)cc1` [Lapatinib ditosylate monohydrate, N-{3-chloro-4-[(3-fluorobenzyl)oxy]phenyl}-6-[5-({[2-(methylsulphonyl)ethyl]amino}methyl)furan-2-yl]quinazolin-4-amine bis(4-methylbenzenesulphonate)monohydrate, reference compound], the hygroscopicity [3] is listed as “non-hygroscopic”, the “solubility in aqueous media” value [3] is listed as “practically insoluble in aqueous media” and the bioavailability (in vivo [4]; plasma, oral, 30 mg Lapatinib/kg) is listed as 57.5%. It also gave an AUC(0-t) (in vivo [4]; [14]) of 23600 ng·h/mL, a CL/F (in vivo [4]; [14]) of 21.2 mL/min/kg and a Cmax (in vivo [4]; [14]) of 3520 ng/mL. It also gave an MRT last (in vivo [4]; [14]) of 4.28 h, a Vd/F (in vivo [4]; [14]) of 4.38 L/kg and a half-life (in vivo [4]; plasma, po, 30 mg/kg, t1/2app (apparent terminal elimination half-life), oral 30 mg/kg) of 2.39 h. The C0 ([5]; iv bolus 10 mg/kg in DMSO:PEG:WFI (10:40:50), read-out: C0 (extrapolated concentration at time 0)) was 20200 ng/mL, the AUC(0-t) ([5]; iv bolus 10 mg/kg) was 13700 ng·h/mL and the MRT last ([5]; iv bolus 10 mg/kg) was 1.54 h. The AUC (in vivo [6]) was 18400 ng·h/mL, the Cmax (in vivo [6]) was 3510 ng/mL and the MRT inf (in vivo [6]) was 4.31 h. It also gave a Tmax (in vivo [6]) of 2 h, an AUC (in vivo [7]) of 12300 ng·h/mL and an MRT inf (in vivo [7]) of 35.9 h. For the same compound, the AUC0INF [8] was 18400 ng·h/mL, the “Absolute Bioavail.” value [8] was 43.5% and the lag1 ([8]; oral model, first (immediate) release) was 0. For the same compound, the “Cmax/AUCt (apparent absorption rate)” value ([2]; oral 30 mg/kg) was 0.149 h⁻¹, the k12 ([9]; IV model) was 0.616 and the k13 ([9]; IV model) was 3.14. It also gave a k21 ([9]; IV model) of 0.00202, a k31 ([9]; IV model) of 1.47 and a kel ([9]; IV model) of 1.6. It also gave a v ([9]; IV model) of 0.358, an AUC0INF ([9]; derived from PK modelling, IV) of 14100 ng·h/mL and a T12 ([9]; derived from PK modelling, IV) of 176 h.
With `CS(=O)(=O)CCNCc1ccc(-c2ccc3ncnc(Nc4ccc(OCc5cccc(F)c5)c(Cl)c4)c3c2)o1` [Form II, Lapatinib monotosylate:caprylic acid (1:2)] the bioavailability (in vivo [4]; in vivo, 30 mg Lapatinib/kg) was 50.7%, the MRT last (in vivo [4]; in vivo, po, 30 mg/kg, oral 30 mg/kg) was 4.67 h and the “exposure time after which very small amounts of Lapatinib monotosylate Form M1 were detected by XRPD” value [10] was 60 days. The “Lapatinib monotosylate observed in the co-crystal after 23 days” value [10] was “only traces”, the “stability in water suspension (XRPD finding)” value [11] was “recovering pure Form II after 24 hours” and the AUC0INF [8, 15] was 16700 ng·h/mL. For the same compound, the “Absolute Bioavail.” value [8, 15] was 39.5%, the Cmax [8, 15] was 2813.5 ng/mL and the MRTINF [8, 15] was 4.67 h. It also gave a Tmax [8, 15] of 3 h, a Cmax ([2]; oral 30 mg/kg, 30 mg/kg) of 2814 ng/mL and an AUCt ([2]; oral 30 mg/kg, 30 mg/kg) of 20778 ng·h/mL. For the same compound, the Tmax ([2]; oral 30 mg/kg, 30 mg/kg) was 3 h.
`CS(=O)(=O)CCNCc1ccc(-c2ccc3ncnc(Nc4ccc(OCc5cccc(F)c5)c(Cl)c4)c3c2)o1` [Form I, Lapatinib monotosylate:caproic acid (1:2)] showed an AUC(0-t) (in vivo [4]; [14]) of 13300 ng·h/mL, a CL/F (in vivo [4]; [14]) of 33.2 mL/min/kg and a Cmax (in vivo [4]; [14]) of 3170 ng/mL. The bioavailability (in vivo [4]; plasma, po, 30 mg/kg) was 32.4%, the Vd/F (in vivo [4]; [14]) was 6.83 L/kg and the Tmax (in vivo [4]; plasma, po, 30 mg/kg, tmax, oral 30 mg/kg) was 2 h. The “exposure time after which very small amounts of Lapatinib monotosylate Form M1 were detected by XRPD” value [10] was 23 days, the “Lapatinib monotosylate observed in the co-crystal after 23 days” value [10] was “a little amount” and the AUC0INF [8, 16] was 15000 ng·h/mL. For the same compound, the “Absolute Bioavail.” value [8, 16] was 35.5%, the Cmax [8, 16] was 3018.6 ng/mL and the MRTINF [8, 16] was 3.85 h. For the same compound, the Tmax [8, 16] was 1.6 h.
For `CS(=O)(=O)CCNCc1ccc(-c2ccc3ncnc(Nc4ccc(OCc5cccc(F)c5)c(Cl)c4)c3c2)o1` [Lapatinib], the “increase of bioavailability when co-administered with a high fat meal” value ([12]; compared with fasting conditions, Ratain and Cohen) is listed as 325%, the “drug class (solubility/permeability)” value ([12]; low solubility-good permeability, Custodio et al.) is listed as “Class II” and the pKa [13] is listed as about 5.4.
For `CCCCCCCC(=O)O` [caprylic acid], the pKa [1] is given as 4.91.
